This note sets out measurements from patent US7579356B2, “Thia-tetraazaacenaphthylene kinase inhibitors” (Janssen Pharmaceutica NV, priority 2005, dated 2009).

Holding throughout (type): biochemical
In one assay the target is T1, EGFR (Homo sapiens, UniProt P00533).
T1 construct: The intracellular portion of EGFR started at nucleotide 2189 (corresponding to amino acid 667) and ended at the termination codon; made in house; host or cells: Sf9 insect cells (baculovirus)
Nature of the assay: EGFR Kinase Assay. The conditions noted are these: for IC50: GST-EGFR, ATP 5 μM; for inhibition at 2 µM: test concentration of 2 μM, compounds without an IC50, read-out: EGFR inhibition in percent. The essentials: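 Potency came from triplicate 16-point half-log titrations starting at 200 uM, with IC50 fitted from % inhibition against log concentration, or % inhibition at 2 μM otherwise. Reaction: Sf9-made GST–EGFR cytoplasmic region (aa 667 onward), biotin-polyGluTyr, 5 μM ATP with 33P tracer, pH 8.0 Tris/Mg/vanadate/DTT, 30 °C for 1 h; captured on streptavidin Flashplates and counted.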

Another assay has as its target T2, HER-2 (Homo sapiens, UniProt P04626).
T2 construct: His6 with thrombin site (N); purchased Proqinase (Freiburg, Germany)
Nature of the assay: HER-2 Kinase Assay. Particulars: for IC50: value in parentheses; for inhibition at 1 µM: test concentration of 1 μM. The essentials:
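Read-out was scintillation counting of 33P incorporated into biotinylated polyGluTyr captured on streptavidin plates. Reactions ran 1 h at 30 °C with GST-fused HER-2 residues 679–1255, 1 μM ATP, Mn2+ and Mg2+ at pH 7.5; data given as percent inhibition at 1 μM, with IC50 where determined.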

The next assay concerns the target T3, c-Src kinase (human) (Homo sapiens, UniProt P12931).
T3 construct: purchased Upstate Biotechnology, Lake Placid, N.Y
Nature of the assay: c-Src Kinase Assay. Particulars: test concentration of 2 μM; multiple values are separate assay results. The procedure, abridged: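 Inhibition was read as 33P incorporation, counted on P30 filtermats, after a 40 min, 30° C reaction. Human c-Src acted on 100 μM Cdc2 peptide with 5 μM ATP (final), pH 7.0 MOPS/MgCl2. Values are percent inhibition at 2 μM compound, or IC50 where determined.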

Another assay deals with T4, Lyn kinase (human) (Homo sapiens, UniProt P07948).
T4 construct: purchased Upstate Biotechnology, Lake Placid, N.Y
T4 sequence (P07948 whole entry): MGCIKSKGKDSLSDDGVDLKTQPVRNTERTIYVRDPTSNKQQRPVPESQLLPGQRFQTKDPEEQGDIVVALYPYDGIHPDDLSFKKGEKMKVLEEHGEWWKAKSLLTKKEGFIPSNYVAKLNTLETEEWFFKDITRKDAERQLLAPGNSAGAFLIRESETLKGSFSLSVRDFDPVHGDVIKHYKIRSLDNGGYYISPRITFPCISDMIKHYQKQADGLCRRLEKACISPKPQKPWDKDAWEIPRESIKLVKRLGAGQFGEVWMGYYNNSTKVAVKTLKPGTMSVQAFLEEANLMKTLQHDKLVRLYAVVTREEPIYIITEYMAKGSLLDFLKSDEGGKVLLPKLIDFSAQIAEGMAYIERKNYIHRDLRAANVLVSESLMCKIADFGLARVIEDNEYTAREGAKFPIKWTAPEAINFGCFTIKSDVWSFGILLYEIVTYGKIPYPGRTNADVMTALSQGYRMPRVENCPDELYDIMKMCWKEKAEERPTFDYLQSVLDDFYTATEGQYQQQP
Nature of the assay: Lyn Kinase Assay. The conditions noted are these: test concentration of 2 μM. The essentials: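 Radiometric filter-binding assay with recombinant human Lyn, poly(Glu,Tyr) substrate (0.1 mg/mL final), 5 μM ATP plus γ-33P-ATP in MOPS pH 7.5/Mg acetate buffer; 40 min at 30 °C, stopped with phosphoric acid, counted by scintillation. Reported as percent inhibition at 2 μM, with IC50 (μM) where determined.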

T2 sequence (P04626 679-1255): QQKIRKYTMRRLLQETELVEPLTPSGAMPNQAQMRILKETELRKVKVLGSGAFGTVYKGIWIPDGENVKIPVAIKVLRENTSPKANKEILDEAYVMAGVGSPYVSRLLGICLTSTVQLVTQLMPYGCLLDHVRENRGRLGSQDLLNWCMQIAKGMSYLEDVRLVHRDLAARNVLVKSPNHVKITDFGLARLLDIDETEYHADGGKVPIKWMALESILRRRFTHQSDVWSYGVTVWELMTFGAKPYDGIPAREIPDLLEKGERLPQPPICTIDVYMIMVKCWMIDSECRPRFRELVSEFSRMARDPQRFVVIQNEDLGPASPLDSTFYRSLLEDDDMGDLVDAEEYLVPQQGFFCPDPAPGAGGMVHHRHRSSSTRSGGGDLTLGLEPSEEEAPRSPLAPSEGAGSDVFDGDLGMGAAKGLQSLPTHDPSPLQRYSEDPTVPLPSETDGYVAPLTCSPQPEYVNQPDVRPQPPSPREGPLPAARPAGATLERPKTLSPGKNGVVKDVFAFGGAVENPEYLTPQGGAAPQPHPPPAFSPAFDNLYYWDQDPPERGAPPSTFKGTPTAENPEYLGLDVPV
T1 sequence (P00533 669-1210 limits assumed): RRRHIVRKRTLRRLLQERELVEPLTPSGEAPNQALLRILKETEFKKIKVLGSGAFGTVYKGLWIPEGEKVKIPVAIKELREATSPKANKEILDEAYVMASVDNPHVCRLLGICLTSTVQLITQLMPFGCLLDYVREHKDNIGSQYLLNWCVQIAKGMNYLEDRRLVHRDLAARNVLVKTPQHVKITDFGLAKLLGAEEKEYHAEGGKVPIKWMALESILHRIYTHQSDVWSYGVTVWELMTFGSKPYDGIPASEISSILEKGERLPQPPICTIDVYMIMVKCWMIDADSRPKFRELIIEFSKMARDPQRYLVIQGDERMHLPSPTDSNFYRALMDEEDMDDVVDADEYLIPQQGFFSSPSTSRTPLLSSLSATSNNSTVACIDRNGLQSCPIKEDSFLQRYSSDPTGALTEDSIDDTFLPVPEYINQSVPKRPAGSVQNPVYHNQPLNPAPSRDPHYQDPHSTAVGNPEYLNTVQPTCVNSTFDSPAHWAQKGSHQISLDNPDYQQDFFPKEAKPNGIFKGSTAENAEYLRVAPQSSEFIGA
T3 sequence (P12931 whole entry): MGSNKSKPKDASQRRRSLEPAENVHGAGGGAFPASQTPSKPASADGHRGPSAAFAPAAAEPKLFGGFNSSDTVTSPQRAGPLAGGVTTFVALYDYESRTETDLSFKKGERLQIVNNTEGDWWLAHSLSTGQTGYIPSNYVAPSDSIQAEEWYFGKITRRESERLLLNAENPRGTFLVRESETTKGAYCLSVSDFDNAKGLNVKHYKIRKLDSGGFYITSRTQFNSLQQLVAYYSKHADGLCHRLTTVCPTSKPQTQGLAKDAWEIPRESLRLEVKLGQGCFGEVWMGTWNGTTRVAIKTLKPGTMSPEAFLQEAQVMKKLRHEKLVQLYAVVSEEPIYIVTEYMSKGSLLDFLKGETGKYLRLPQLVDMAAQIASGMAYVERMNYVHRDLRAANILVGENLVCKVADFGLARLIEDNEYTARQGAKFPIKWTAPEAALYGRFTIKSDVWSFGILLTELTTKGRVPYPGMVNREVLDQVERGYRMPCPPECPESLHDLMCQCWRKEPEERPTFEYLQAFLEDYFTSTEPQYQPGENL

For orientation: IC50 means the point on the concentration scale where inhibition reaches its midpoint. The inhibition is the drop in the measured response relative to a control, in per cent. `NCCCNC(=O)c1sc2ncnc3c2c1NC(=O)N3c1ccc2c(ccn2Cc2cccc(F)c2)c1` [Cpd 142, 5-[1-(3-fluoro-benzyl)-1H-indol-5-yl]-4-oxo-4,5-dihydro-3H-1-thia-3,5,6,8-tetraaza-acenaphthylene-2-carboxylic acid (3-amino-propyl)-amide]: the IC50 amounted to 11 nM at EGFR and 381 nM at HER-2. The inhibition at 2 µM on c-Src kinase (human) was 10%; against Lyn kinase (human), 39%.

As for `COc1cc(NC(=O)c2sc3ncnc4c3c2NC(=O)N4c2ccc(F)cc2Cl)ccc1OCCN1CCCCC1` [Cpd 144, 5-(2-chloro-4-fluoro-phenyl)-4-oxo-4,5-dihydro-3H-1-thia-3,5,6,8-tetraaza-acenaphthylene-2-carboxylic acid [3-methoxy-4-(2-piperidin-1-yl-ethoxy)-phenyl]-amide], half-maximal inhibition at EGFR (IC50) was put at 330 nM. This compound yielded an inhibition at 1 µM against HER-2 of 18%. For the same compound, the inhibition at 2 µM was 67% against c-Src kinase (human) and 84% on Lyn kinase (human).

As to `O=C(Nc1ccc(CN2CCCCC2)cc1)c1sc2ncnc3c2c1NC(=O)N3c1ccc(F)cc1Cl` [Cpd 145, 5-(2-chloro-4-fluoro-phenyl)-4-oxo-4,5-dihydro-3H-1-thia-3,5,6,8-tetraaza-acenaphthylene-2-carboxylic acid (4-piperidin-1-ylmethyl-phenyl)-amide], the IC50 at EGFR is 166 nM; at HER-2, 4230 nM. In addition, testing at 1 µM at HER-2 gave an inhibition of 54%. In addition, the inhibition at 2 µM against c-Src kinase (human) came out at 50%; against Lyn kinase (human), 83%.

Consider `Cc1cccc(Cl)c1N1C(=O)Nc2c(C(=O)Nc3ccc(CN4CCOCC4)cc3)sc3ncnc1c23` [Cpd 146, 5-(2-chloro-6-methyl-phenyl)-4-oxo-4,5-dihydro-3H-1-thia-3,5,6,8-tetraaza-acenaphthylene-2-carboxylic acid (4-morpholin-4-ylmethyl-phenyl)-amide], for which the inhibition at 2 µM was 37% on EGFR, 45% at c-Src kinase (human) and 65% against Lyn kinase (human). Further, on HER-2, the inhibition at 1 µM stood at 21%.

In the case of `Cc1cccc(Cl)c1N1C(=O)Nc2c(C(=O)Nc3ccc(CN4CCCCC4)cc3)sc3ncnc1c23` [Cpd 147, 5-(2-chloro-6-methyl-phenyl)-4-oxo-4,5-dihydro-3H-1-thia-3,5,6,8-tetraaza-acenaphthylene-2-carboxylic acid (4-piperidin-1-ylmethyl-phenyl)-amide], the values for the inhibition at 2 µM at EGFR, on c-Src kinase (human) and against Lyn kinase (human) were 43%, 61% and 76%, respectively. The compound also had an inhibition at 1 µM on HER-2 of 17%.

Take `Cc1cccc(Cl)c1N1C(=O)Nc2c(C(=O)Nc3ccc(C(O)CN4CCOCC4)cc3)sc3ncnc1c23` (stereo not shown) [Cpd 148, 5-(2-chloro-6-methyl-phenyl)-4-oxo-4,5-dihydro-3H-1-thia-3,5,6,8-tetraaza-acenaphthylene-2-carboxylic acid [4-(1-hydroxy-2-morpholin-4-yl-ethyl)-phenyl]-amide]: the inhibition at 2 µM at EGFR was found to be 38%; at c-Src kinase (human), 53%; against Lyn kinase (human), 59%. The compound also yielded an inhibition at 1 µM against HER-2 of 30%.

For `O=C(Nc1ccc(CN2CCOCC2)cc1)c1sc2ncnc3c2c1NC(=O)N3c1ccccc1Cl` [Cpd 149, 5-(2-chloro-phenyl)-4-oxo-4,5-dihydro-3H-1-thia-3,5,6,8-tetraaza-acenaphthylene-2-carboxylic acid (4-morpholin-4-ylmethyl-phenyl)-amide], the figures for the IC50 on EGFR and at HER-2 were 187 nM and 2540 nM, respectively. At 1 µM the inhibition at HER-2 was 53%. The values for the inhibition at 2 µM against c-Src kinase (human) and on Lyn kinase (human) were 54% and 72%, respectively.

In the case of `O=C(Nc1ccc(CN2CCCCC2)cc1)c1sc2ncnc3c2c1NC(=O)N3c1ccccc1Cl` [Cpd 150, 5-(2-chloro-phenyl)-4-oxo-4,5-dihydro-3H-1-thia-3,5,6,8-tetraaza-acenaphthylene-2-carboxylic acid (4-piperidin-1-ylmethyl-phenyl)-amide], the IC50 against EGFR turned out to be 170 nM. In addition, the inhibition at 1 µM on HER-2 is 18%. Besides, the figures for the inhibition at 2 µM against c-Src kinase (human) and against Lyn kinase (human) were 52% and 77%, respectively.
